Target: T1, human TAS2R4 (Homo sapiens, UniProt Q9NYW5)
T1 construct: expressed in transfected cells; host or cells: HEK293T-Gα16gust44
T1 sequence (Q9NYW5 1-299): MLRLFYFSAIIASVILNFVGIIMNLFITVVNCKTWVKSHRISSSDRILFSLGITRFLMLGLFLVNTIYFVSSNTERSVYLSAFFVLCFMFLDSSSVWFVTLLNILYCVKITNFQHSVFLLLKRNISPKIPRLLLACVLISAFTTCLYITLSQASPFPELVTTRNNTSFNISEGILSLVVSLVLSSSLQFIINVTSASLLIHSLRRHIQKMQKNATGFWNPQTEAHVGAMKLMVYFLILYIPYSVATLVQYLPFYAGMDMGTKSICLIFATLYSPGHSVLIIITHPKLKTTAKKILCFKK
Test: Calcium imaging assay (FLIPR), HEK293T-Gα16gust44 cells transfected with human TAS2R4
Type: cell-based
Method: This set of bile acids was chosen because of their commercial availability in high purities, their diversity within the class of bile acids and their previous detection and quantitation in human blood. Stock solutions were prepared in DMSO.
As basal growth medium for the HEK293T-Gα16gust44 cell line[17],[59] served Dulbecco’s modified eagle medium (DMEM) (Thermo Fisher Scientific, Darmstadt, Germany) supplemented with 10 % fetal bovine serum (Sigma-Aldrich, Steinheim, Germany), 2 mM L-glutamine (Sigma-Aldrich, Steinheim, Germany), 100 units/ml penicillin (Sigma Aldrich, Steinheim, Germany) and 100 µg/ml streptomycin (Sigma Aldrich, Steinheim, Germany). Growth conditions were 37 °C, 5 % CO2 and saturated air-humidity[60].
HEK293T-Gα16gust44 cells were seeded on poly-D-lysine (10 µg/ml) coated 96-well plates to reach a confluence of 40-60 % the next day. For transient transfection 150 ng of plasmid DNA containing the receptor of interest and 0.3 µl lipofectamine 2000 (Thermo Fisher Scientific, Darmstadt, Germany) per well were used and transfection took place according to the manual of lipofectamine 2000. […] The empty vector DNA (mock) was transfected as negative control[14],[41].
Cells were loaded using the calcium-sensitive fluorescent dye Fluo-4-AM (Abcam, Cambridge, Great Britain) in the presence of 2.5 mM probenecid (Sigma-Aldrich, Steinheim, Germany) the day after transfection[13],[41]. 1 h after loading, cells were washed with C1 buffer using a BioTek Cell Washer, incubated in the dark for half an hour and washed again. For automated agonist application and measurement of fluorescence changes, a FLIPR^TETRA device (Molecular Devices, San José, United States) was used. Viability of cells was tested by application of 100 nM Somatostatin 14 (Bachem, Bubendorf, Switzerland)[42].
Measured data were negative control corrected by subtracting the signal of the mock-transfected cells and exported to Microsoft Excel using the FLIPR software ScreenWorks 4.2. In Microsoft Excel software, standardization of maximum fluorescence intensities to the basal fluorescence and normalization to the buffer-only control was done to calculate the relative fluorescence changes (ΔF/F).
Initial screening experiments performed in duplicate wells were confirmed by at least one replication and representative traces were selected for display. All dose-response relationships were determined by three independent experiments (biological replicates) performed in duplicates (technical replicates). Threshold concentrations, defined as lowest substance concentrations leading to statistically significant elevated fluorescence changes in receptor-transfected cells compared with empty vector-transfected cells, were determined using SigmaPlot with Student’s t-test to evaluate statistical significance (p < 0.01).

## C[C@H](CCC(=O)NCC(=O)O)[C@H]1CC[C@H]2[C@@H]3[C@H](O)C[C@@H]4C[C@H](O)CC[C@]4(C)[C@H]3C[C@H](O)[C@]12C [Glycocholic Acid, glycocholic acid]
Time (s) 92.781 (TCA, TLCA: 92.782)
  RLU, fluorescence trace: 713.242 RLU
Time (s) 94.781 (TCA, TLCA: 94.782)
  RLU, fluorescence trace: 703.281 RLU
Time (s) 96.781 (TCA, TLCA: 96.782)
  RLU, fluorescence trace: 696.734 RLU
Time (s) 98.781 (TCA, TLCA: 98.782)
  RLU, fluorescence trace: 653.577 RLU
Time (s) 100.781 (TCA, TLCA: 100.782)
  RLU, fluorescence trace: 678.663 RLU
Time (s) 102.781 (TCA, TLCA: 102.782)
  RLU, fluorescence trace: 623.965 RLU
Time (s) 104.781 (TCA, TLCA: 104.782)
  RLU, fluorescence trace: 624.137 RLU
Time (s) 106.781 (TCA, TLCA: 106.782)
  RLU, fluorescence trace: 630.047 RLU
Time (s) 108.781 (TCA, TLCA: 108.782)
  RLU, fluorescence trace: 571.666 RLU
Time (s) 110.781 (TCA, TLCA: 110.782)
  RLU, fluorescence trace: 598.289 RLU
Time (s) 112.781 (TCA, TLCA: 112.782)
  RLU, fluorescence trace: 583.918 RLU
Time (s) 114.781 (TCA, TLCA: 114.782)
  RLU, fluorescence trace: 556.25 RLU
Time (s) 116.781 (TCA, TLCA: 116.782)
  RLU, fluorescence trace: 588.773 RLU
Time (s) 118.781 (TCA, TLCA: 118.782)
  RLU, fluorescence trace: 548.501 RLU
Time (s) 120.781 (TCA, TLCA: 120.782)
  RLU, fluorescence trace: 507.386 RLU
Time (s) 122.781 (TCA, TLCA: 122.782)
  RLU, fluorescence trace: 507.852 RLU
Time (s) 124.781 (TCA, TLCA: 124.782)
  RLU, fluorescence trace: 509.201 RLU
Time (s) 126.781 (TCA, TLCA: 126.782)
  RLU, fluorescence trace: 489.381 RLU
Time (s) 128.781 (TCA, TLCA: 128.782)
  RLU, fluorescence trace: 446.993 RLU
Time (s) 130.781 (TCA, TLCA: 130.782)
  RLU, fluorescence trace: 463.894 RLU
Time (s) 132.781 (TCA, TLCA: 132.782)
  RLU, fluorescence trace: 448.798 RLU
Time (s) 134.781 (TCA, TLCA: 134.782)
  RLU, fluorescence trace: 427.428 RLU
Time (s) 136.781 (TCA, TLCA: 136.782)
  RLU, fluorescence trace: 402.196 RLU
Time (s) 137.547
  RLU, fluorescence trace: 379.772 RLU
Time (s) 143.547
  RLU, fluorescence trace: 379.834 RLU
Time (s) 149.547
  RLU, fluorescence trace: 308.948 RLU
Time (s) 155.547
  RLU, fluorescence trace: 318.726 RLU
Time (s) 161.547
  RLU, fluorescence trace: 303.241 RLU
Time (s) 167.547
  RLU, fluorescence trace: 312.32 RLU
Time (s) 173.547
  RLU, fluorescence trace: 281.168 RLU
Time (s) 179.547
  RLU, fluorescence trace: 242.535 RLU
Time (s) 185.547
  RLU, fluorescence trace: 225.911 RLU
Time (s) 191.547
  RLU, fluorescence trace: 214.607 RLU
Time (s) 197.547
  RLU, fluorescence trace: 221.087 RLU
Time (s) 203.547
  RLU, fluorescence trace: 189.795 RLU
Time (s) 209.547
  RLU, fluorescence trace: 203.53 RLU
Time (s) 215.547
  RLU, fluorescence trace: 197.074 RLU
Time (s) 221.547
  RLU, fluorescence trace: 173.704 RLU
Time (s) 227.547
  RLU, fluorescence trace: 160.915 RLU
Time (s) 233.547
  RLU, fluorescence trace: 142.108 RLU
Time (s) 239.547
  RLU, fluorescence trace: 141.876 RLU
Time (s) 245.547
  RLU, fluorescence trace: 156.883 RLU
Time (s) 293.547
  RLU, fluorescence trace: 127.131 RLU
Time (s) 299.547
  RLU, fluorescence trace: 134.948 RLU
Time (s) 305.547
  RLU, fluorescence trace: 119.109 RLU
Time (s) 311.547
  RLU, fluorescence trace: 130.712 RLU
Time (s) 317.547
  RLU, fluorescence trace: 94.0562 RLU
Time (s) 323.547
  RLU, fluorescence trace: 123.872 RLU
Time (s) 329.547
  RLU, fluorescence trace: 117.665 RLU
Time (s) 335.547
  RLU, fluorescence trace: 137.018 RLU
Time (s) 341.547
  RLU, fluorescence trace: 127.876 RLU
Time (s) 347.547
  RLU, fluorescence trace: 133.973 RLU
Time (s) 353.547
  RLU, fluorescence trace: 116.889 RLU
Time (s) 359.547
  RLU, fluorescence trace: 102.962 RLU
Lowest concentration with significantly increased fluorescence vs empty vector (p < 0.01)
  Activation threshold concentration TAS2R4: 30 µM

— paper PMC10247784, “Physiological activation of human and mouse bitter taste receptors by bile acids” (Communications Biology, 2023)
